# Test results: BindingDB's records for patent US20250257051 (1910 Genetics, 2025)
# Molecular target: T1, Non-receptor tyrosine-protein kinase TYK2 [556-888] (Homo sapiens, UniProt P29597)
# T1 construct: 556-888
# Assay: TYK2 JH2 Domain Binding Assay
# Method: Binding constants for compounds disclosed herein against the JH2 domain are determined by the following protocol for a KINOMEscan assay (DiscoveRx). A fusion protein of a partial length construct of human TYK2 (JH2domain-pseudokinase) (amino acids G556 to D888 based on reference sequence NP 003322.3) and the DNA binding domain of NFkB is expressed in transiently transfected HEK293 cells. From these HEK 293 cells, extracts are prepared in M-PER extraction buffer (Pierce) in the presence of Protease Inhibitor Cocktail Complete (Roche) and Phosphatase Inhibitor Cocktail Set II (Merck) per manufacturers' instructions. The TYK2 (JH2domain-pseudokinase) fusion protein is labeled with a chimeric double-stranded DNA tag containing the NFkB binding site (5′-GGGAATTCCC-3′) fused to an amplicon for qPCR readout, which is added directly to the expression extract (the final concentration of DNA-tag in the binding reaction is 0.1 nM).
# T1 sequence (P29597 556-888): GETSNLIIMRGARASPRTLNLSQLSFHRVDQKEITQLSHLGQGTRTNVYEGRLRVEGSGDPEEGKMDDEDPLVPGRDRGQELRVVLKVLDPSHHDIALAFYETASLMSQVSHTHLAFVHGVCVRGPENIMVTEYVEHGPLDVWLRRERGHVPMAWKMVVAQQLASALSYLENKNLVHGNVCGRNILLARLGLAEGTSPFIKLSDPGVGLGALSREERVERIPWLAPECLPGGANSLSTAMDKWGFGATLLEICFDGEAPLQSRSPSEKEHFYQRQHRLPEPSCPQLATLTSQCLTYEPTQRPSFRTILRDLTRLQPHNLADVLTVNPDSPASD
row,Kd [µM],SMILES
1,0.37,"CNC(=O)c1cnc(N2CCCC2)nc1Nc1ccc(C2CC2)nc1 [US20250257051, Compound 10]"
2,19,"CNC(=O)c1cnc(N2CCNCC2C)nc1Nc1ccc(C2CC2)nc1 (centres undefined) [US20250257051, Compound 14]"
3,3.3,"COc1ccccc1Nc1nc(N2CCCNCC2)ncc1C(N)=O [US20250257051, Compound 40]"
4,2.9,"CC(C)(C)OC(=O)N1CCCN(c2ncc(C(N)=O)c(Nc3ccccc3S(C)(=O)=O)n2)CC1 [US20250257051, Compound 65]"
